Measured values as given in patent US9856278B2, “Lysophosphatidylserine derivative” (THE UNIVERSITY OF TOKYO, priority 2014, dated 2018).
Counter-ions that a name gives are not always drawn.

Legend:
mouse GPR34 = biological target: T1, mouse GPR34 (Mus musculus, UniProt Q9R1K6); assay: TGFα cleavage assay, agonistic activity against GPR34; type: cell-based; settings: HEK293 cells transfected with AP labeled TGFα and mouse GPR34; graded against EC50 of Reference Compound 1
T1 construct: expressed in transfected cells; host or cells: HEK293 cells, transient transfection with pCAGGS vector (LipofectAMINE 2000)
T1 sequence (Q9R1K6 whole entry): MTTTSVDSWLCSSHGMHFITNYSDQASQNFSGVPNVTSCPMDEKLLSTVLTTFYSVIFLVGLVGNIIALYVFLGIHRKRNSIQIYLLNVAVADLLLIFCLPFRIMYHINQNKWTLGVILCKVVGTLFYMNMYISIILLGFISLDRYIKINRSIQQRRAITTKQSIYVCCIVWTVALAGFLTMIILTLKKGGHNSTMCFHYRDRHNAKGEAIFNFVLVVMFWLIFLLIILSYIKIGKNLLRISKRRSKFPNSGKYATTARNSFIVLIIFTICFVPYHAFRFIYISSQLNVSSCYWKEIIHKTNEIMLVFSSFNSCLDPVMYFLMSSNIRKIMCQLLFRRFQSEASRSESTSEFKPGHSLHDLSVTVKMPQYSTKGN
Description: (§1) In a Dulbecco's modified Eagle's medium (DMEM) containing 10% bovine fetal calf serum (FCS), HEK293 cells were suspended to give a density of 2.0×10^5 cells/mL and seeded in 4 mL portions in 60 mm dishes. After 24-hr culture in the presence of 5% CO2, transfection with various expression vectors was performed using LipofectAMINE 2000 (Invitrogen). For each 60 mm dish, a plasmid vector for AP labeled TGFα was used in an amount of 1 μg and a pCAGGS plasmid vector for mouse GPR34, P2Y10 or GPR174 was also used in an amount of 1 μg. The plasmid vectors were provided by the methods disclosed in Patent Documents 2 and 5. It should be noted that the AP labeled TGFα is a protein having a human placental alkaline phosphatase fused to the N terminal of membrane-bound pro-TGFα, and a plasmid vector for the AP labeled TGFα can be prepared based on the disclosure of Tokumaru et al., J Cell Biol 151, 209-220 (2000). Twenty-four hours after transfection, cells were dissociated using trypsin/EDTA, resuspended in the culture broth to give a density of 2.0×10^4 cells/well, and seeded in a 96-well plate. In the case of stimulation with compounds, a Hank's balanced salt solution (HBSS, containing 5 mM HEPES) was used. After standing for 30 minutes, test compounds were added at varying concentrations, followed by standing for an additional one hour in the presence of 5% CO2. The 96-well plate was centrifuged (190×g, 3 min) and 80 μL of the supernatant was transferred to another 96-well plate. A reaction buffer (40 mM Tris-HCl (pH 9.5)) containing 10 mM p-nitrophenyl phosphate (p-NPP) was added in an amount of 80 μL to both the supernatant and the cells. After OD405 measurement with a microplate reader (background), heating was done at 37° C. for an hour and then another OD405 measurement was performed. For each well, the background was subtracted from the absorbance measured the second time and the result was fitted to the following formula to calculate AP activity.
Further, the values obtained by subtracting the AP activity (%) for the unstimulated group were plotted on the vertical axis to draw a graph.

mouse P2Y10 = biological target: T2, mouse P2Y10 (Mus musculus, UniProt Q8BFU7); assay: TGFα cleavage assay, agonistic activity against P2Y10; type: cell-based; settings: for P2Y10/LPS2 agonistic activity: HEK293 cells transfected with AP labeled TGFα and mouse P2Y10, graded against EC50 of Reference Compound 1; for EC50: HEK293 cells, mouse P2Y10, AP-TGFα release, value in parentheses, read-out: P2Y10/LPS2 EC50; for selectivity for P2Y10: against GPR34 and GPR174, from Table 3
T2 construct: expressed in transfected cells; host or cells: HEK293 cells, transient transfection with pCAGGS vector (LipofectAMINE 2000)
T2 sequence (Q8BFU7 whole entry): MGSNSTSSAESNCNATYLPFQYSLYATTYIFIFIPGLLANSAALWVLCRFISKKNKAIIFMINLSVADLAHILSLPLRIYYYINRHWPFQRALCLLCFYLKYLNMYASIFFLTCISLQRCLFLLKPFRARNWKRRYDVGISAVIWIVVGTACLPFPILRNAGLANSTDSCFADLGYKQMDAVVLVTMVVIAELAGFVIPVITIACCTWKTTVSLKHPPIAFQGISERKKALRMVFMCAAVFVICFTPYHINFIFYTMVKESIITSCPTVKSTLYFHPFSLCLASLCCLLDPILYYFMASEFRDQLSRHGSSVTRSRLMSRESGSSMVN
Description: as §1
(§2) Further, the values obtained by subtracting the AP activity (%) for the unstimulated group were plotted on the vertical axis to draw a graph. […] The EC50 values of the respective compounds are also cited in parentheses.

mouse GPR174 = biological target: T3, mouse GPR174 (Mus musculus, UniProt Q3U507); assay: TGFα cleavage assay, agonistic activity against GPR174; type: cell-based; settings: for GPR174/LPS3 agonistic activity: HEK293 cells transfected with AP labeled TGFα and mouse GPR174, graded against EC50 of Reference Compound 1; for EC50: HEK293 cells, mouse GPR174, AP-TGFα release, value in parentheses, read-out: GPR174/LPS3 EC50
T3 construct: expressed in transfected cells; host or cells: HEK293 cells, transient transfection with pCAGGS vector (LipofectAMINE 2000)
T3 sequence (Q3U507 whole entry): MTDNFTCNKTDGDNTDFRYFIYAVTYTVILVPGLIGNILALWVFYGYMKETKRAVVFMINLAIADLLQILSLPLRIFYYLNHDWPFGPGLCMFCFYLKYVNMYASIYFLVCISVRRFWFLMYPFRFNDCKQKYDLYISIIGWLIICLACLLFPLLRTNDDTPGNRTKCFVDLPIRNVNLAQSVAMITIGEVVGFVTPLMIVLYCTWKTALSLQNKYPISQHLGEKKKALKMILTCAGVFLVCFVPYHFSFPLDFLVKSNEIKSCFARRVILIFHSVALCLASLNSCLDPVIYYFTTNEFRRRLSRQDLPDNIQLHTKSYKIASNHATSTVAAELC
Description: as §1, §2

CCCCCCCCCCCOc1ccccc1CCC(=O)OCc1ccc(OP(=O)(O)OC[C@H](N)C(=O)O)cc1 (as salt: TFA)
melting point: 184 to 193 °C

N[C@@H](COP(=O)(O)Oc1cccc(COC(=O)CCc2ccccc2OCc2cccc(Oc3ccccc3)c2)c1)C(=O)O (as salt: TFA) [Example 7, O-(hydroxy(3-(((3-(2-((3-phenoxybenzyl)oxy)phenyl)propanoyl)oxy)methyl)phenoxy)phosphoryl)-L-serine]
melting point: 175 to 185 °C

CCCCCCCCCCCOc1ccccc1CCC(=O)Oc1cccc(OP(=O)(O)OC[C@H](N)C(=O)O)c1 (as salt: salt) [Example 2, O-(hydroxy(3-((3-(2-(undecyloxy)phenyl)propanoyl)oxy)phenoxy)phosphoryl)-L-serine]
melting point: 123 to 126.5 °C

CCCCCCCCCCCOc1ccccc1CCC(=O)Oc1ccc(OP(=O)(O)OC[C@H](N)C(=O)O)cc1 (as salt: salt) [Example 3, O-(hydroxy(4-((3-(2-(undecyloxy)phenyl)propanoyl)oxy)phenoxy)phosphoryl)-L-serine]
melting point: 140.5 to 142 °C

CCCCCCCCCCCOc1ccccc1CCC(=O)Oc1cccc(OP(=O)(O)OC[C@H](N)C(=O)O)c1 [Example 2, O-(hydroxy(3-((3-(2-(undecyloxy)phenyl)propanoyl)oxy)phenoxy)phosphoryl)-L-serine]
GPR34/LPS1 agonistic activity (mouse GPR34): −
P2Y10/LPS2 agonistic activity (mouse P2Y10): +++~++++
EC50 (mouse P2Y10): 14 nM
selectivity for P2Y10 (mouse P2Y10): agonists having selectivity for P2Y10
GPR174/LPS3 agonistic activity (mouse GPR174): −

CCCCCCCCCCCOc1ccccc1CCC(=O)Oc1ccc(OP(=O)(O)OC[C@H](N)C(=O)O)cc1 [Example 3, O-(hydroxy(4-((3-(2-(undecyloxy)phenyl)propanoyl)oxy)phenoxy)phosphoryl)-L-serine]
GPR34/LPS1 agonistic activity (mouse GPR34): −
P2Y10/LPS2 agonistic activity (mouse P2Y10): +++~++++
EC50 (mouse P2Y10): 7 nM
selectivity for P2Y10 (mouse P2Y10): agonists having selectivity for P2Y10
GPR174/LPS3 agonistic activity (mouse GPR174): +~++
EC50 (mouse GPR174): 340 nM

CCCCCCCCCCCOc1ccccc1CCC(=O)OCc1ccccc1OP(=O)(O)OC[C@H](N)C(=O)O [Example 4, O-(hydroxy(2-(((3-(2-(undecyloxy)phenyl)propanoyl)oxy)methyl)phenoxy)phosphoryl)-L-serine]
GPR34/LPS1 agonistic activity (mouse GPR34): +++
P2Y10/LPS2 agonistic activity (mouse P2Y10): ++
GPR174/LPS3 agonistic activity (mouse GPR174): +

CCCCCCCCCCCOc1ccccc1CCC(=O)OCc1cccc(OP(=O)(O)OC[C@H](N)C(=O)O)c1 [Example 6, O-(hydroxy(3-(((3-(2-(undecyloxy)phenyl)propanoyl)oxy)methyl)phenoxy)phosphoryl)-L-serine]
GPR34/LPS1 agonistic activity (mouse GPR34): −~++
P2Y10/LPS2 agonistic activity (mouse P2Y10): ++++
EC50 (mouse P2Y10): 3.3 nM
selectivity for P2Y10 (mouse P2Y10): agonists having selectivity for P2Y10
GPR174/LPS3 agonistic activity (mouse GPR174): +~++

N[C@@H](COP(=O)(O)Oc1cccc(COC(=O)CCc2ccccc2OCc2cccc(Oc3ccccc3)c2)c1)C(=O)O [Example 7, O-(hydroxy(3-(((3-(2-((3-phenoxybenzyl)oxy)phenyl)propanoyl)oxy)methyl)phenoxy)phosphoryl)-L-serine]
GPR34/LPS1 agonistic activity (mouse GPR34): −
P2Y10/LPS2 agonistic activity (mouse P2Y10): ++~+++
EC50 (mouse P2Y10): 31 nM
selectivity for P2Y10 (mouse P2Y10): agonists having selectivity for P2Y10
GPR174/LPS3 agonistic activity (mouse GPR174): −~+

CCCCCCCCCCCOc1ccccc1CCC(=O)Oc1cccc(COP(=O)(O)OC[C@H](N)C(=O)O)c1 [Example 9, O-(hydroxy((3-((3-(2-(undecyloxy)phenyl)propanoyl)oxy)benzyl)oxy)phosphoryl)-L-serine]
GPR34/LPS1 agonistic activity (mouse GPR34): −
P2Y10/LPS2 agonistic activity (mouse P2Y10): +++
EC50 (mouse P2Y10): 30 nM
selectivity for P2Y10 (mouse P2Y10): agonists having selectivity for P2Y10
GPR174/LPS3 agonistic activity (mouse GPR174): −

N[C@@H](COP(=O)(O)OCc1cccc(OC(=O)CCc2ccccc2OCc2cccc(Oc3ccccc3)c2)c1)C(=O)O [Example 10, O-(hydroxy((3-((3-(2-((3-phenoxybenzyl)oxy)phenyl)propanoyl)oxy)benzyl)oxy)phosphoryl)-L-serine]
GPR34/LPS1 agonistic activity (mouse GPR34): −~+
P2Y10/LPS2 agonistic activity (mouse P2Y10): ++
GPR174/LPS3 agonistic activity (mouse GPR174): +~++

CCCCCCCCCCCOc1ccccc1CCC(=O)OCC#CCOP(=O)(O)OC[C@H](N)C(=O)O [Example 12, O-(hydroxy((4-((3-(2-(undecyloxy)phenyl)propanoyl)oxy)but-2-yn-1-yl)oxy)phosphoryl)-L-serine]
GPR34/LPS1 agonistic activity (mouse GPR34): −
P2Y10/LPS2 agonistic activity (mouse P2Y10): ++++~+++++
EC50 (mouse P2Y10): 1.5 nM
selectivity for P2Y10 (mouse P2Y10): agonists having selectivity for P2Y10
GPR174/LPS3 agonistic activity (mouse GPR174): +

Cc1ccc(Oc2cccc(COc3ccccc3CCC(=O)O)c2)cc1 [Example 33, 3-(2-((3-(p-tolyloxy)benzyl)oxy)phenyl)propanoic acid]
melting point: 104.5 to 106 °C

Cc1cccc(C)c1-c1cccc(COc2ccccc2CCC(=O)O)c1 [Example 36, 3-(2-((2′,6′-dimethyl[1,1′-biphenyl]-3-yl)methoxy)phenyl)propanoic acid]
melting point: 117.5 to 120 °C

CC(C)(C)c1ccc(Oc2cccc(COc3ccccc3CCC(=O)O)c2)cc1 [Example 42, 3-(2-((3-(4-(tert-butyl)phenoxy)benzyl)oxy)phenyl)propanoic acid]
melting point: 111.1 to 112.5 °C

O=C(O)CCc1ccccc1OCc1cccc(-c2ccccc2)c1 [Example 47, 3-(2-([1,1′-biphenyl]-3-ylmethoxy)phenyl)propanoic acid]
melting point: 87.8 to 88.8 °C

O=C(O)CCc1cccc(OCc2cccc(-c3ccccc3)c2)c1 [Example 48, 3-(3-([1,1′-biphenyl]-3-ylmethoxy)phenyl)propanoic acid]
melting point: 90 to 91 °C

CCCCCCCC/C=C\CCCCCCCC(=O)OC[C@@H](O)COP(=O)(O)OC[C@H](N)C(=O)O [compound 1, reference compound]
GPR34/LPS1 agonistic activity (mouse GPR34): +++
P2Y10/LPS2 agonistic activity (mouse P2Y10): +++
EC50 (mouse P2Y10): 8.3 nM
GPR174/LPS3 agonistic activity (mouse GPR174): +++
EC50 (mouse GPR174): 81 nM
